From patent publication US20220347171A1, “TREATMENT OF PRURIGO NODULARIS” (TREVI THERAPEUTICS, INC., priority 2016, published 2022)
Structures can show the parent of a compound that is named as a salt.

Experiments:
[1] = injectable formulations (IV or IM or SC); cited from earlier work
[2] = test system: prurigo nodularis patients; assay: Double-blind, placebo-controlled trial in prurigo nodularis patients (Example 2): 7-day average daily Worst Itching Intensity NRS (0-10); assay type: in vivo, human
Protocol: This clinical study was a double-blind, placebo-controlled trial in which prurigo nodularis patients were randomized in a 1:1:1 ratio to nalbuphine ER tablets to a target dose of 90 mg twice daily (BID), nalbuphine HCl ER tablets 180 mg BID, or placebo tablets BID. Use of nonsedating rescue antihistamine medications (non-first generation H1-antihistamines [Simons F E. Advances in H1-antihistamines. N Engl J Med. 2004; 351(21):2203-17.]) were allowed in the study but their use was recorded. Cleansing emollients were allowed for hygiene purposes provided there were no active substances (such as menthol or urea) contained in the lotion. A placebo comparator was chosen because there are no approved treatments for prurigo nodularis in the United States or Europe or an established standard of care that could serve as an active control.
The primary objectives were to evaluate the effects of two doses of nalbuphine HCl ER tablets on the 7-day average daily worst itch (i.e., most severe) intensity using a Worst Itching Intensity Numerical Rating Scale (NRS, 0 [no itching]-10 [worst possible itching]; range, 0-10; anchors at 0 “no itching”; 4-6 “moderate itching”; and 10 “worst possible itching”) (FIG. 1) as well as safety and tolerability. The study was conducted at four North American sites and four European sites. The Sponsor oversaw the conduct of the trial and an independent unblinded Data Safety Monitoring Board reviewed safety data approximately once a month during the conduct of the trial.
The initial primary endpoint was the proportion of patients who achieved at least 30% reduction threshold in 7-day average daily diary-reported worst itch intensity NRS score from baseline to Week 10/last observed post-baseline value (LOV). For the primary endpoint, a responder was a patient who achieved at least 30% reduction threshold in 7-day average daily diary-reported worst itch intensity NRS score from baseline to Week 10/last observed post-baseline value (LOV).
Before study completion and unblinding, however, a more substantial 50% NRS reduction criterion was added as an important definition of response. For this criterion, a responder was a patient who achieved at least 50% reduction threshold in 7-day average daily diary-reported worst itch intensity NRS score from baseline to Week 10/last observed post-baseline value (LOV).
The modified intent-to-treat (MITT) population consisted of all randomly assigned patients who provided a baseline calculated NRS and at least one post-baseline NRS during randomized treatment. Patients were analyzed according to the treatment to which they were randomly assigned.
The primary worst itch NRS endpoint was evaluated by the calculation of proportions, and statistical testing of each nalbuphine dose and placebo was undertaken using a stratified categorical method, the Cochran-Mantel-Haenszel test that took into account site. Specifically, each nalbuphine group was compared to placebo in the form of a stratified (by site) 2×2 table with a P value reported for the nalbuphine HCl ER 180 mg BID versus placebo comparison and a P value separately reported for the nalbuphine HCl ER 90 mg BID versus placebo comparison. The lower nalbuphine dose versus placebo P value was evaluated only if the higher nalbuphine dose versus placebo P value was statistically significant at the 0.05 level. Data from all post-baseline visits were used to fit the model.
In the first 2 weeks of treatment, patients were blindly force-titrated to their assigned target dose, with the patients in the active arms reaching a dose of 90 mg BID (NAL 90) and, for those in the high dose group, to 180 mg BID (NAL 180) in the second week. Study drug was administered in blister cards containing the labeled morning and evening doses for each day of the week. Subsequently, patients continued stable doses of the study drug for an additional 8 weeks and were then washed off study drug and followed for another 2 weeks for itching intensity and safety.

Oc1ccc2c3c1OC1[C@@H](O)CC[C@@]4(O)[C@@H](C2)N(CC2CCC2)CC[C@]314 (stereo partly drawn) [Nalbuphine, 17-(cyclobutylmethyl)-4,5α-epoxymorphinian-3, 6α, 14-triol, hydrochloride]
half-life [1]: 2 to 3 h | Responders: at least 30% reduction in 7-day average daily diary-reported worst itch intensity NRS score from baseline ([2]; 90 mg BID, Week 10 - LOV, MITT N=22, P value 0.779 vs placebo): 6 (27.3) N (%) | Responders: at least 50% reduction in 7-day average daily diary-reported worst itch intensity NRS score from baseline ([2]; 90 mg BID, Week 10 - LOV, MITT N=22, p-value 0.981 vs placebo): 3 (13.6%) N (%) | Responders: at least 30% reduction in 7-day average daily diary-reported worst itch intensity NRS score from baseline ([2]; 90 mg BID, Week 10 - completer, N=18, P value 0.723 vs placebo): 6 (33.3) N (%) | Responders: at least 50% reduction in 7-day average daily diary-reported worst itch intensity NRS score from baseline ([2]; 90 mg BID, Week 10 - completer, N=18, p-value 0.649 vs placebo): 2 (11.1%) N (%) | Responders: at least 30% reduction in 7-day average daily diary-reported worst itch intensity NRS score from baseline ([2]; 180 mg BID, Week 10 - LOV, MITT N=18, P value 0.323 vs placebo): 8 (44.4) N (%) | Responders: at least 50% reduction in 7-day average daily diary-reported worst itch intensity NRS score from baseline ([2]; 180 mg BID, Week 10 - LOV, MITT N=18, p-value 0.083 vs placebo): 6 (33.3%) N (%) | Responders: at least 30% reduction in 7-day average daily diary-reported worst itch intensity NRS score from baseline ([2]; 180 mg BID, Week 10 - completer, N=12, P value 0.026 vs placebo): 9 (75.0) N (%) | Responders: at least 50% reduction in 7-day average daily diary-reported worst itch intensity NRS score from baseline ([2]; 180 mg BID, Week 10 - completer, N=12, p-value 0.028 vs placebo): 6 (50%) N (%) | Mean Change from Baseline to the Last Observation in the Worst Itching NRS versus placebo ([2]; 180 mg BID, patients who completed the study, P=0.025): statistically significant difference
